The subject of experiment [1] is Fresh human dermal neurofibroma. The experiment in a line: Ex vivo tumor explant assay, histological score. The experiment is classed as cell-based. As to conditions: compound added day 1, collected day 3, criterion “+” or more. The method, then:
The efficacy of the compound/agent was tested in an ex vivo tumor explant model as follows. Fresh human dermal neurofibroma was cut into eight small pieces and cultured on standard cell culture plates with medium containing DMEM/F12, 10% FBS, heregulin and forskolin. The pieces were divided into treatment and control groups. Compound at different doses was added to the medium on day 1. No compound was added in the negative control group. All tumor pieces were collected on day 3 and processed for histology by formalin fixation and paraffin embedding. Tissue sections were cut and stained with hematoxylin-eosin for histological analysis. The histological analysis of the paired explant samples was conducted blindly. Three histological parameters were used to score the samples from “−” to “+++”: 1) overall tissue integrity; we evaluate tissue integrity by comparing the cellularity of treated samples to the negative control samples. The low cellularity area was defined as >30% less nucleus than the similar area on the control sample. The photograph of each sample at 40× under a bright field microscopy was take using MagnaFire digital camera (Optronics, USA) and stored in computer. The low cellularity areas in the pictures were measured using Photoshop and calculated as Length×Width, and then expressed as a percentage over the total area of the sample. Overall tissue integrity was scored using 0 to 2+ score. In short, good tissue integrity is scored 0 (<5%), 1+ indicates medium tissue integrity (5-25%), 2+ low tissue integrity (>25%). Only 2+ cases were regarded as positive “+” for the final total score; 2) cell death—slides were evaluated by bright field microscopy. At least 100 cells per view were counted. Cell death was scored semi-quantitatively using the 0 to 3+ score. The absence of condensed or fragmented nucleus is scored 0, 1+ indicates the lowest level of detectable cell death (<10%), 2+ moderate cell death ([…]), and 3+ high cell death (>30%). All 2+ and 3+ cases were regarded as positive “+” for the final total score; and 3) effect on vasculatures.—slides were evaluated by bright field microscopy. The effect on vasculature in treated samples was determined by comparing with the vasculatures in control negative samples. At least 20 vasculatures per sample were counted. Effect on vasculatures was scored semi-quantitatively using the […]. In short, absence or the lowest level of damaged vasculature is scored 0 (<5%), 1+ indicates of some damaged vasculature (5-25%), 2+ high (>25%). All 1+ and 2+ cases were regarded as positive “+” for the final total score. Final histological score was the sum of the scores of the above three parameters, expressed as “−” to “+++”. Any compound with a histological score of “+” or more will be potential good candidates for local treatment of neurofibromas.

The nature of experiment [2]: Cell proliferation assay (ATPlite) in a panel of NF1 related cell lines. Format: cell-based, human and mouse. The settings on record: 72 h; read-out: IC50 (concentration required for inhibition of cell proliferation by 50%). The method, then: Several physiologically relevant cells or cell lines were employed to measure compound potency in cell proliferation assays. These cells include: (1) NF1-deficient human malignant peripheral nerve sheath tumor (MPNST) cells, (2) Nf1^−/− mouse embryonic Schwann cells, and (3) Nf1- and p53-deficient mouse cell. […] All the other cells are grown in DMEM with 10% fetal bovine serum (FBS).
Various concentrations of each compound/agent to be tested were added to the growing media and the cells were then cultured for 3 days. […] Viable cells were measured by detecting luminescence generated from reaction of ATPlite solution and the ATP in the cells.
A general note: ATP-based viability assays read luminescence as a measure of living cells.

The next experiment concerns cutaneous neurofibromas. The experiment in a line: Proof-of-concept intralesional administration study in NF1 subjects. Format: in vivo, human. The settings on record: intralesional injection once weekly for 4 weeks, all controls showed no change. From the text: The study was a proof-of-concept, prospective, safety and efficacy study of the effect of intralesionally administered drugs given once a week to 3 target cutaneous neurofibromas for 4 consecutive weeks. Six subjects were enrolled. […] All subjects were from 18 to 65 years of age, inclusive. All subjects otherwise were in good health, or had stable concomitant medical conditions appropriately managed by a primary care physician. […] After screening and enrollment, all subjects received a defined volume (based on the size of the lesion) of intralesional drug once weekly into 3 target cutaneous neurofibromas that are 0.5 to 1.5 cm in diameter, inclusive, in its largest dimension. Each target cutaneous neurofibroma was different in size, with one 0.5 to 0.8 cm in diameter, a second between 0.81 to 1.2 cm in diameter, and a third 1.21 to 1.5 cm in diameter. Concomitantly, three control cutaneous neurofibromas found on the torso and/or appendages of the same range in sizes received sterile normal saline. All lesions prior to injection were locally anesthetized with lidocaine 1% and epinephrine 1:100,000. […] Assessment included the exact measured dimensions (in two axes) of the […] assessed lesions. […]

For the molecule `O=c1[nH]cc(F)c(=O)[nH]1` [5-fluorouracil], the “Final histological score (tissue integrity, cell death, effect on vasculatures)” value (“Final histological score” for short) in experiment [1] was “+”. For the same molecule, the IC50 in experiment [2] is at most 10 µM.

As for Bleomycin, the “Final histological score” value in experiment [1] is given as “+”.

On to `CO[C@H]1C[C@@H]2CC[C@@H](C)[C@@](O)(O2)C(=O)C(=O)N2CCCC[C@H]2C(=O)O[C@H]([C@H](C)C[C@@H]2CC[C@@H](O)[C@H](OC)C2)CC(=O)[C@H](C)/C=C(\C)[C@@H](O)[C@@H](OC)C(=O)[C@H](C)C[C@H](C)/C=C/C=C/C=C/1C` [rapamycin, Rapamycin], for which, in experiment [2], the IC50 was at most 10 µM.

As for `CC1=C(/C=C/C(C)=C/C=C/C(C)=C/C(=O)Nc2ccc(O)cc2)C(C)(C)CCC1` [Fenretinide], in experiment [1], the “Final histological score” value is “+”. Moreover, the IC50 in experiment [2] was at most 10 µM. With `NC(=O)c1cn([C@@H]2O[C@H](CO)C(O)C2O)c2ncnc(N)c12` (stereo partly shown) [Sangivamycin], the “Final histological score” value in experiment [1] is “+”. For the same molecule, the IC50 in experiment [2] was at most 10 µM. In the same order, the values of `C[C@@H]1C[C@H]2O[C@@H]2/C=C\C=C\C(=O)Cc2c(Cl)c(O)cc(O)c2C(=O)O1` [radicicol, Radicicol] are “+” and at most 10 µM. In the case of `Nc1nc(Cl)nc2c1ncn2[C@H]1C[C@H](O)[C@@H](CO)O1` [Cladribine], the IC50 in experiment [2] was at most 10 µM. Take `O=C([O-])Cc1ccccc1Nc1c(Cl)cccc1Cl.[Na+]` [Diclofenac]: in the experiment on cutaneous neurofibromas, the “tumors injected showing partial or complete elimination of the dermal neurofibroma” value was determined as 48%. In experiment [1], the “Final histological score” value is listed as “+”. As for `CCCC(CCC)C(=O)O` [Valproic acid], the “Final histological score” value in experiment [1] is “+”. Regarding `CC1=C(/C=C/C(C)=C/C=C/C(C)=C/C(=O)O)C(C)(C)CCC1` [retinoic acid, 3,7-dimethyl-9-(2,6,6-trimethyl-1-cyclohexenyl)-nona-2,4,6,8-tetraenoic acid], the IC50 in experiment [2] is at most 10 µM.

For `N#CC(=C(/N)Sc1ccccc1N)/C(C#N)=C(\N)Sc1ccccc1N` [U0126, 1,4-Diamino-2,3-dicyano-1,4-bis(2-aminophenylthio)-butadiene], the IC50 in experiment [2] is at most 10 µM. For the molecule `C[C@H]1c2cccc(O)c2C(=O)C2=C(O)[C@]3(O)C(=O)C(C(N)=O)=C(O)[C@@H](N(C)C)[C@@H]3[C@@H](O)[C@@H]21.Cl` [Doxycycline], the “tumors injected showing partial or complete elimination of the dermal neurofibroma” value in the experiment on cutaneous neurofibromas came out at 89%. Further, the IC50 in experiment [2] is at most 10 µM. `CC(/C=C/C(=O)NO)=C\[C@@H](C)C(=O)c1ccc(N(C)C)cc1` [Tricostatin A]: in experiment [1], the “Final histological score” value was “+”. Also, the IC50 in experiment [2] was at most 10 µM. With `COc1cc([C@@H]2c3cc4c(cc3[C@H](O)[C@H]3COC(=O)[C@H]23)OCO4)cc(OC)c1OC` [Podophyllotoxin], the “Final histological score” value in experiment [1] is “+”. Also, in experiment [2], the IC50 is at most 10 µM. With `CCCCCCCCCCCCCCCCOP(=O)([O-])OCC[N+](C)(C)C` [miltefosine, Miltefosine], the IC50 in experiment [2] was at most 10 µM. Regarding `O=c1cc(N2CCOCC2)oc2c(-c3ccccc3)cccc12` [LY294002, 2-(4-Morpholinyl)-8-phenyl-4H-1-benzopyran-4-one], the IC50 in experiment [2] is at most 10 µM. As to `COC(=O)Nc1nc2cc(C(=O)c3ccccc3)ccc2[nH]1` [Mebendazole], in experiment [1], the “Final histological score” value is given as “+”. In addition, the IC50 in experiment [2] was at most 10 µM. For `S=P(N1CC1)(N1CC1)N1CC1` [Thiotepa], in that order: “+” and at most 10 µM. Take `CCN(CC)CCNC(=O)c1c(C)[nH]c(/C=C2\C(=O)Nc3ccc(Cl)cc32)c1C` [SU11652, 5-[(Z)-(5-Chloro-2-oxo-1,2-dihydro-3H-indol-3-ylidene)methyl]-N-[2-(diethylamino)ethyl]-2,4-dimethyl-1H-pyrrole-3-carboxamide]: the IC50 in experiment [2] is at most 10 µM.

Consider `Nc1ncnc2c1ccn2[C@@H]1O[C@H](CO)[C@@H](O)[C@H]1O` [Tubercidin], for which the “Final histological score” value in experiment [1] was “+”. Also, in experiment [2], the IC50 was at most 10 µM. Regarding `COc1cc2ncnc(N3CCN(C(=S)NCc4ccc5c(c4)OCO5)CC3)c2cc1OC` [KN2941, 4-(6.7-dimethoxy-4-quinazolinyl)-N-(3,4-methylenedioxybenzyl)-1-piperazinethiocarboxamide], the IC50 in experiment [2] was at most 10 µM. As to `C=CCNC1=C2C[C@@H](C)C[C@H](OC)[C@H](O)[C@@H](C)/C=C(\C)[C@H](OC(N)=O)[C@@H](OC)/C=C\C=C(/C)C(=O)NC(=CC1=O)C2=O` [17-AAG, 17-(Allylamino)-17-demethoxygeldanamycin], in experiment [1], the “Final histological score” value is “+”. In addition, in experiment [2], the IC50 was at most 10 µM. As to `CC[C@@]1(O)C(=O)OCc2c1cc1n(c2=O)Cc2cc3ccccc3nc2-1` [Camptothecin], the IC50 in experiment [2] was at most 10 µM. Turning to `O=C(O[C@@H]1Cc2c(O)cc(O)cc2O[C@@H]1c1cc(O)c(O)c(O)c1)c1cc(O)c(O)c(O)c1` [EGCG, (−)-Epigallocatechin Gallate], the IC50 in experiment [2] was at most 10 µM. On the same count and under the same terms, under `COc1cc(/C=C/C(=O)CC(=O)/C=C/c2ccc(O)c(OC)c2)ccc1O` [curcumin, Curcumin] stands at most 10 µM.

Source of the values: patent US8211875B2, “Local treatment of neurofibromas” (Nexgenix Pharmaceuticals Inc, priority 2005, dated 2012).
